{"source": "patent US20150352177A1", "about": "“Method Of Treating An Ocular Disease And Compositions Effective For Treating An Ocular Disease” (Howard University, priority 2012, published 2015)"}
{"tested_on": "severe endophthalmitis", "assay": "Combination therapy treatment of a subject with severe endophthalmitis (single case)", "type": "in vivo, human", "conditions": "topical Ceftazidime, Vancomycin and Prednisolone eye drops every two hours, without efflux transporter inhibitor, over two days, vision dropped to no light perception", "experimental": "A uniocular subject was diagnosed with severe endophthalmitis in their only functioning eye. […] The subject was treated with an aggressive treatment regimen of topical antibiotics Ceftazidime eye drops, Vancomycin eye drops and steroid Prednisolone eye drops every two hours.\nCyclosporin A (sold as […]® from Allergan, Inc.) was added to the treatment regimen and was administered prior to administering the antibiotic and steroid eye drops.\nThe Ceftriaxone was added to the regimen to increase the aggressiveness of the therapy with the goal of preventing or eliminating any traces of infection in the retina, which can result in irreversible blindness."}
{"smiles": "CC(C)(O/N=C(\\C(=O)N[C@@H]1C(=O)N2C(C(=O)[O-])=C(C[n+]3ccccc3)CS[C@H]12)c1csc(N)n1)C(=O)O", "note": "[Ceftazidime]", "improvement under initial treatment regimen": "no improvement"}
{"smiles": "C[C@]12C=CC(=O)C=C1CC[C@@H]1[C@@H]2[C@@H](O)C[C@@]2(C)[C@H]1CC[C@]2(O)C(=O)CO", "note": "[Prednisolone]", "improvement under initial treatment regimen": "no improvement"}
{"smiles": "CN[C@H](CC(C)C)C(=O)N[C@H]1C(=O)N[C@@H](CC(N)=O)C(=O)N[C@H]2C(=O)N[C@H]3C(=O)N[C@H](C(=O)N[C@H](C(=O)O)c4cc(O)cc(O)c4-c4cc3ccc4O)[C@H](O)c3ccc(c(Cl)c3)Oc3cc2cc(c3O[C@@H]2O[C@H](CO)[C@@H](O)[C@H](O)[C@H]2O[C@H]2C[C@](C)(N)[C@H](O)[C@H](C)O2)Oc2ccc(cc2Cl)[C@H]1O", "note": "[Vancomycin]", "improvement under initial treatment regimen": "no improvement"}
